Among the data in BindingDB's records for doi:10.1111/cbdd.12379 (Quaid-I-Azam University, 2015) are IC50 values, retold here.

Sequence of Urease [D459Y,K653P] (P07374 whole entry D459Y/K653P): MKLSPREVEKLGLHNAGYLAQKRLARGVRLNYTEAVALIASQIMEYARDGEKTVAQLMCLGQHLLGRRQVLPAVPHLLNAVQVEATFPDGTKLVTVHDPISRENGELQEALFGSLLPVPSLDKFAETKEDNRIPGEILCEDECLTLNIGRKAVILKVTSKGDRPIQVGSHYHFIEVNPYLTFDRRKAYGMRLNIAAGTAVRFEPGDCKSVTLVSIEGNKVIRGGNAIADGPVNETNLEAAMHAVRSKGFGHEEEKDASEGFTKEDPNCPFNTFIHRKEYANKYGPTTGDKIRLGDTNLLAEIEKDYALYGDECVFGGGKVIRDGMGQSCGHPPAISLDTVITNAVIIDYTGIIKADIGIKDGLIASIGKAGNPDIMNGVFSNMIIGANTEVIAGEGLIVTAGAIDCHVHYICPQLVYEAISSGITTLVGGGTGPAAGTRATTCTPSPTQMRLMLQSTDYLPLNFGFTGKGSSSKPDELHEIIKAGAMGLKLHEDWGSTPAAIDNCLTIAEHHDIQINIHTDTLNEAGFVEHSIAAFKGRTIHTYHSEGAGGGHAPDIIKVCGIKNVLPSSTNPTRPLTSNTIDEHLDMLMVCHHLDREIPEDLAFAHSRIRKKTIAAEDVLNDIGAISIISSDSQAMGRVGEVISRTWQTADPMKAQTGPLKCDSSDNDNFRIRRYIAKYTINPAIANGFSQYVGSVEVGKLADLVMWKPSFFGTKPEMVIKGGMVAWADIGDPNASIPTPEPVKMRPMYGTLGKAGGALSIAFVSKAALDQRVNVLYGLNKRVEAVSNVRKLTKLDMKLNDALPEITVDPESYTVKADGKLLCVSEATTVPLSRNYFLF

This assay has as its target Urease [D459Y,K653P] (Canavalia ensiformis, UniProt P07374, D459Y/K653P). Put plainly: In vitro Urease Inhibition Assay. The conditions noted are these: pH 8.2. As for the experimental part:
Urease inhibition activity was determined by indophenol method. […] Initially, urease enzyme and the test compound were incubated in the assay buffer for 30 minutes (in a linear reaction range) at 37 °C, 40 µL of phenol and alkali reagents were added to stop the reaction. […] All the assays were performed in triplicate.
Broadly, the IC50 is the concentration that inhibits the measured activity by half. Take `NC(=S)N/N=C/Cc1ccccc1` [[(E)-(2-phenylethylidene)amino]thiourea (3j)]: half-maximal inhibition (IC50) required 4.24 µM.
`Cc1ccc(C/C=N/NC(N)=S)o1` [[(E)-[2-(5-methylfuran-2-yl)ethylidene]amino]thiourea (3g)] registered an IC50 of 3.23 µM.
With `NC(=S)N/N=C/Cc1ccco1` [[(E)-[2-(furan-2-yl)ethylidene]amino]thiourea (3f)] the figure was 0.58 µM; with `NC(=S)N/N=C/Cc1ccc2ccc3cccc4ccc1c2c34` [[(E)-[2-(pyren-1-yl)ethylidene]amino]thiourea (3m)], 4.84 µM; with `NC(=S)N/N=C/Cc1ccccn1` [[(E)-[2-(pyridin-2-yl)ethylidene]amino]thiourea (3a)], 2.65 µM.
Take `NC(=S)N/N=C/Cc1cccnc1` [[(E)-[2-(pyridin-3-yl)ethylidene]amino]thiourea (3b)]: the IC50 was 2.41 µM.
As for `COc1cc(C/C=N/NC(N)=S)ccc1OCc1ccccc1` [[(E)-{2-[4-(benzyloxy)-3-methoxyphenyl]ethylidene}amino]thiourea (3l)], the figure is 75.1 µM.
As for `NC(=S)N/N=C/Cc1ccc(OCc2ccccc2)cc1` [[(E)-{2-[4-(benzyloxy)phenyl]ethylidene}amino]thiourea (3k)], the figure is 3.64 µM.
